“And” between values parts separate entries of the source, which are not always exact repeats. Identical values can stand only once.
Tests used:
[1] = Ames test for mutagenicity, tester strain TA1538; type: cell-based, Salmonella typhimurium
Protocol: (§1) Ames test of the prior art dye 2,4-di-(o-hydroxy-p-dimethylamino phenyl) cyclobutene diylium-1,3- diolate was then conducted. This dye is of the type shown in Example 11 of aforesaid US-A-3,824,099.
(§2) This mutagenicity testing was performed using DMSO as the solvent. Six dose levels were tested in duplicate, with and without metabolic activation, in five tester strains (TA1535, TA1537, TA1538, TA98, and TA100). The tests were repeated to ensure reproducibility.

[2] = test system: TA1538; experiment: Ames test for mutagenicity, tester strain TA1538; type: cell-based, Salmonella typhimurium
Protocol: as §1, §2

[3] = Ames test for mutagenicity, tester strain TA98; type: cell-based, Salmonella typhimurium; settings: read-out: TA98 × background
Protocol: as §1, §2

[4] = test system: TA98; experiment: Ames test for mutagenicity, tester strain TA98; type: cell-based, Salmonella typhimurium
Protocol: as §1, §2

[5] = test system: Salmonella typhimurium: TA1535, TA1537, TA1538, TA98 and TA100; experiment: Ames Salmonella/microsome assay, five standard strains; type: cell-based; parameters: unit not given here; settings: Ames plates, DMSO solvent
Protocol: as §2
Ames test of the 2,4-di-(o-hydroxy-p-pyrrolidino phenyl) cyclobutene diylium-1,3-diolate (hydroxy pyrrolidino squarylium or OHPYRRSQ) of the present invention dye was conducted.
This compound was examined for mutagenic activity in the Ames Salmonella/microsome assay using the five standard strains of Salmonella typhimurium: TA1535, TA1537, TA1538, TA98 and TA100. All assays were performed in duplicate, both in the presence and the absence of a rat-liver metabolic activation system. DMSO was used as the solvent.
The compound was tested on two separate days at doses ranging from […]. Low-level S-9 was used in the first assay and high-level S-9 was used in the confirming assay.

[6] = purified dye, dimethylamino phenol precursor distilled, DMSO solvent, replicate Test no./Assay no.
[7] = without purification of the dye, replicate Assay no.

Compound	fold induction ([1]; ames ta1538, purified dye, dimethylamino phenol precursor distilled, DMSO solvent, replicate Test no./Assay no., read-out: TA1538 × background)	fold induction ([1]; ames ta1538, without purification of the dye, replicate Assay no., read-out: TA1548 × background)	TA1538 × background [2, 6]	TA1548 × background [2, 7]	fold induction ([3]; ames ta98, purified dye, dimethylamino phenol precursor distilled, DMSO solvent, replicate Test no./Assay no.)	fold induction ([3]; ames ta98, without purification of the dye, replicate Assay no.)	TA98 × background [4, 6]	TA98 × background [4, 7]	Dose level at and above which precipitate was observed [5]
CN(C)c1ccc(C2=C([O-])C(=C3C=CC(=[N+](C)C)C=C3O)C2=O)c(O)c1 [OHSQ, 2,4-di-(o-hydroxy-p-dimethylaminophenyl) cyclobutene diylium-1,3-diolate]	2.9	4.9	2.9 × background and 2.8 × background and 3.3 × background	6.8 × background	2.4	2.6	2.3 × background and 2.7 × background and 2.90 × background	3.3 × background	
O=C1C(=C2C=CC(=[N+]3CCCC3)C=C2O)C([O-])=C1c1ccc(N2CCCC2)cc1O [OHPYRRSQ, 2,4-di-(o-hydroxy-p-pyrrolidinophenyl) cyclobutene diylium-1,3-diolate]									≥ 500

— patent publication EP0172321B1, “Squarylium charge generating dye and electrophotographic photoconductor” (International Business Machines Corporation, priority 1984, dated 1986)
